Legend:
[1] = Test Example 11: BA test (oral absorbability); type: in vivo; settings: plasma; Mouse, oral administration 1 mg/kg
Experimental: Materials and methods for experiments to evaluate oral absorbability
(1) Experimental animals: rats or mice were used. (2) Breeding condition: rats or mice were allowed free access to solid feed and sterilized tap water (3) Setting of dosage and grouping: Oral administration and intravenous administration were performed with the predetermined dosage. Grouping was set as below. (Dosage varied depending on each compound)
Oral administration 1 to 30 mg/kg (n=2 to 3)
Intravenous administration 0.5 to 10 mg/kg (n=2 to 3)
(4) Preparation of administered liquid: Oral administration was performed using a solution or a suspension. Intravenous administration was performed after solubilization. (5) Method of Administration: In oral administration, compulsory administration to the stomach was conducted using an oral sonde. […] (6) Evaluation items: Blood was chronologically collected, and then concentration of a compound of the present invention in blood plasma was measured using a LC/MS/MS. […]
(7) Statistical analysis: With regard to a shift in plasma concentration of the compound of the present invention, the area under the plasma concentration-time curve (AUC) was calculated using a nonlinear least-squares program, WinNonlin (a registered trademark). Bioavailability (BA) was calculated from the AUCs of the oral administration group and the intravenous administration group. […]

[2] = system: Salmonella typhimurium TA98 strain, TA100 strain; experiment: Test Example 7: FAT test (mutagenicity); set-up: key: (−) means that mutagenicity is negative; (+) is positive; settings: TA98 and TA100 strains, non-metabolism activating and metabolism activating conditions
Experimental: Mutagenicity of a compound of the present invention was evaluated.
[…] of freezing-stored rat typhoid bacillus (Salmonella typhimurium TA98 strain, TA100 strain) was inoculated on 10 mL of a liquid nutrient medium (2.5% Oxoid nutrient broth No. 2), and this was cultured before shaking at 37° C. for 10 hours. 9 mL of a bacterial solution of the TA98 strain was centrifuged (2000×g, 10 minutes) to remove a culturing solution. The bacteria was suspended in 9 mL of a Micro F buffer (K2HPO4: 3.5 g/L, KH2PO4: 1 g/L, (NH4)2SO4: 1 g/L, trisodium citrate dehydrate: 0.25 g/L, MgSO4*7H2O: 0.1 g/L), the suspension was added to 110 mL of an Exposure medium (Micro F buffer containing Biotin: 8 μg/mL, histidine: 0.2 μg/mL, glucose: 8 mg/mL). The TA100 strain was added to 120 mL of the Exposure medium relative to 3.16 mL of the bacterial solution to prepare a test bacterial solution. […] Since a well containing a bacterium which has obtained the proliferation ability by mutation of an amino acid (histidine) synthesizing enzyme gene turns from purple to yellow due to a pH change, the bacterium proliferation well which has turned to yellow in 48 wells per dose was counted, and was assessed by comparing with a negative control group. […]

[3] = target: T1, CYP3A4 enzyme expressed in Escherichia coli (Homo sapiens, UniProt P08684); experiment: Test Example 5: CYP3A4 fluorescent MBI test; type: in vitro ADME; settings: substrate 7-BFC, pre-reaction 30 minutes, compound 0.625-20 μmol/L
T1 construct: host or cells: Escherichia coli
Experimental: CYP3A4 Fluorescent MBI Test
The CYP3A4 fluorescent MBI test is a test of investigating enhancement of CYP3A4 inhibition of a compound of the present invention by a metabolism reaction, and the test was performed using, as CYP3A4 enzyme expressed in Esherichia coli and employing, as an index, a reaction in which 7-benzyloxytrifluoromethylchmarin (7-BFC) is debenzylated by the CYP3A4 enzyme to produce a metabolite, 7-hydroxytrifluoromethylchmarin (HFC) emitting fluorescent light.
The reaction conditions were as follows: substrate, 5.6 μmol/L 7-BFC; pre-reaction time, […] or 30 minutes; reaction time, 15 minutes; reaction temperature, 25° C. […]
An enzyme in a K-Pi buffer (pH 7.4) and a solution of the compound of the present invention as a pre-reaction solution were added to a 96-well plate at the above composition of the pre-reaction. […] For the plate on which each index reaction had been performed, a fluorescent value of 7-HFC which is a metabolite was measured with a fluorescent plate reader. […]
Addition of only DMSO which is a solvent dissolving the compound of the present invention to a reaction system was adopted as a control (100%). Remaining activity (%) was calculated at each concentration of the compound of the present invention added as the solution, and IC50 was calculated by reverse-presumption by a logistic model using a concentration and an inhibition rate. […]

[4] = target: T2, human TRPV4 (hTRPV4/CHO cells) (Homo sapiens, UniProt Q9HBA0); experiment: Test Example 1: TRPV4 inhibitory activity (IC50 value), 4α-PDD stimulation, Fluo4 calcium fluorescence (FLIPR TETRA); type: cell-based; settings: Test Example 1, 4α-PDD stimulation, read-out: Test 1 IC50
T2 construct: expressed in transfected cells; host or cells: CHO-K1
T2 sequence (Q9HBA0 whole entry): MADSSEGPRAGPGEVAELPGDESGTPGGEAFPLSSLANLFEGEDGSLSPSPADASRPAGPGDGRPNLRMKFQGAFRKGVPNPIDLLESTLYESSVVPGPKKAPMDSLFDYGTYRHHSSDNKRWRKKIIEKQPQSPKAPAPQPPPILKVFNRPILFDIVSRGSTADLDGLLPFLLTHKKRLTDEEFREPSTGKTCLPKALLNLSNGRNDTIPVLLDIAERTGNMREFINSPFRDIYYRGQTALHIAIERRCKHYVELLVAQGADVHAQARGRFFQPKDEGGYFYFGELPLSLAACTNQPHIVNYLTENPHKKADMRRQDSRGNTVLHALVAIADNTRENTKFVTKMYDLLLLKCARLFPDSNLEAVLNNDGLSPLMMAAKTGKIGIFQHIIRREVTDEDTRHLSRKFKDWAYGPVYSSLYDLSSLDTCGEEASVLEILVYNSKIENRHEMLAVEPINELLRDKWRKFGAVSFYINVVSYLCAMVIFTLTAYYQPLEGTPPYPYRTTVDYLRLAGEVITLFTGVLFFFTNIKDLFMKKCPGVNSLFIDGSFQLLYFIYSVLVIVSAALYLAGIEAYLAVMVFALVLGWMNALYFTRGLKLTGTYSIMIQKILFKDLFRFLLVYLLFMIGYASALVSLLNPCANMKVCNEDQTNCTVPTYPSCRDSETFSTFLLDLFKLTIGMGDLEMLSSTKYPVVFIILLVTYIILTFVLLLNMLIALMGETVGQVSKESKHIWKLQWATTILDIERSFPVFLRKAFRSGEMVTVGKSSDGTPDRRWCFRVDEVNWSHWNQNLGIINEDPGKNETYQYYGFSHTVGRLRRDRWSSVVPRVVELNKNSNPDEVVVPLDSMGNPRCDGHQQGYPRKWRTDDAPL

T1 sequence (P08684 whole entry): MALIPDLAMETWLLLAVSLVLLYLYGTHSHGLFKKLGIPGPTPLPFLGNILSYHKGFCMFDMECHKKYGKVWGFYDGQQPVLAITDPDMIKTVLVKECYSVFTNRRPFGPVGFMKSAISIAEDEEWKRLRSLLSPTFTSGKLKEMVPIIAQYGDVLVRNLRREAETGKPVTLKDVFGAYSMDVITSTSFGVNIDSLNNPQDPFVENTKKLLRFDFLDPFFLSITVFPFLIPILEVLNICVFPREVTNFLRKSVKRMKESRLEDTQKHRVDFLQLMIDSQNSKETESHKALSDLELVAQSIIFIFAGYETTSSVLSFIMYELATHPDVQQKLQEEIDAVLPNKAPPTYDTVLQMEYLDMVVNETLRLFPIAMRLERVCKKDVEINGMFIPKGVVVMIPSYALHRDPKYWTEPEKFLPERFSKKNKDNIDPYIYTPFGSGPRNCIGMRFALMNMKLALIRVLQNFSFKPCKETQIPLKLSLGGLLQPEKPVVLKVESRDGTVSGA

Cc1nc(CO)sc1-c1csc(NC(=O)Cn2cc(Cl)cn2)n1 [Compound I-131]
bioavailability [1]: 61.4% | Mutagenicity (FAT test) [2]: (−) | CYP3A4 fluorescent MBI test: difference between IC50 values without and with preincubation [3]: (−) (when the difference is 3 μM or less, this was defined as (−)) | IC50 [4]: 100 to 1000 nM
